Reference: PubChem BioAssay (NCI)
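These data come from cells grown in 96-well plates and exposed to compound for 48 hours at five concentrations. Abbreviation: GI50, concentration required for 50% inhibition of growth. TGI denotes the concentration required for complete inhibition of growth.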

Experiments:
Test in all cases: inhibition of tumour cell growth, NCI panel, 48 h
[1] = system: OVCAR-3 ovarian
[2] = system: RPMI-8226 leukemia
[3] = system: UACC-62 melanoma
[4] = system: COLO 205 colon
[5] = system: PC-3 prostate
[6] = system: HCT-15 colon
[7] = system: MALME-3M melanoma
[8] = system: EKVX NSCLC
[9] = system: HOP-92 NSCLC
[10] = system: SNB-19 CNS
[11] = system: NCI/ADR-RES ovarian
[12] = system: U251 CNS
[13] = system: CAKI-1 renal
[14] = system: LOX IMVI melanoma
[15] = system: NCI-H522 lung
[16] = system: SN12C renal
[17] = system: UO-31 renal
[18] = system: NCI-H23 lung
[19] = system: OVCAR-8 ovarian
[20] = system: MOLT-4 leukemia
[21] = system: TK-10 renal
[22] = system: HS 578T breast
[23] = system: SK-OV-3 ovarian
[24] = system: SNB-75 CNS
[25] = system: SK-MEL-28 melanoma
[26] = system: KM12 colon
[27] = system: ACHN renal
[28] = system: IGROV1 ovarian
[29] = system: M14 melanoma
[30] = system: BT-549 breast
[31] = system: UACC-257 melanoma
[32] = system: MDA-MB-231 breast
[33] = system: SF-268 CNS
[34] = system: SF-539 CNS
[35] = system: RXF 393 renal
[36] = system: K-562 leukemia
[37] = system: SK-MEL-5 melanoma
[38] = system: HCT-116 colon
[39] = system: NCI-H226 lung
[40] = system: HT29 colon
[41] = system: NCI-H460 lung
[42] = system: CCRF-CEM leukemia
[43] = system: HOP-62 NSCLC
[44] = system: T-47D breast
[45] = system: SF-295 CNS
[46] = system: MDA-MB-435
[47] = system: DU-145 prostate
[48] = system: SR leukemia
[49] = system: SK-MEL-2 melanoma
[50] = system: MCF7 breast
[51] = system: OVCAR-5 ovarian
[52] = system: A549 NSCLC
[53] = system: OVCAR-4 ovarian
[54] = system: 786-0 renal
[55] = system: SW-620 colon
[56] = system: A498 renal
[57] = system: HL-60(TB) leukemia
[58] = system: HCC-2998 colon

## CCOC(=O)Cn1c(-c2nonc2NC(=O)c2ccccc2F)nc2ccccc21
[1]
  GI50: 7.07 µM
  TGI: > 100 µM
[2]
  GI50: 7.5 µM
  TGI: > 100 µM
[3]
  GI50: 5.86 µM
  TGI: > 100 µM
[4]
  GI50: > 35.6 µM
  TGI: > 100 µM
[5]
  GI50: 3.16 µM
  TGI: > 82.1 µM
[6]
  GI50: 0.109 µM
  TGI: > 100 µM
[7]
  GI50: 26.6 µM
  TGI: > 87 µM
[8]
  GI50: 28 µM
  TGI: > 100 µM
[9]
  GI50: 22.1 µM
  TGI: 67.9 µM
[10]
  GI50: 5.58 µM
  TGI: > 100 µM
[11]
  GI50: 4.74 µM
  TGI: > 100 µM
[12]
  GI50: 0.41 µM
  TGI: 25.8 µM
[13]
  GI50: 2.33 µM
  TGI: > 100 µM
[14]
  GI50: 0.309 µM
  TGI: > 100 µM
[15]
  GI50: 12.7 µM
  TGI: > 78.9 µM
[16]
  GI50: 26.2 µM
  TGI: > 100 µM
[17]
  GI50: 28.1 µM
  TGI: > 100 µM
[18]
  GI50: > 70.1 µM
  TGI: > 100 µM
[19]
  GI50: 0.739 µM
  TGI: > 60.1 µM
[20]
  GI50: 0.451 µM
  TGI: > 100 µM
[21]
  GI50: 19.2 µM
  TGI: > 82.7 µM
[22]
  GI50: 32.4 µM
  TGI: > 100 µM
[23]
  GI50: 21.3 µM
  TGI: > 100 µM
[24]
  GI50: 4.29 µM
  TGI: 46 µM
[25]
  GI50: 17.9 µM
  TGI: > 100 µM
[26]
  GI50: 1.93 µM
  TGI: > 100 µM
[27]
  GI50: 5.05 µM
  TGI: > 100 µM
[28]
  GI50: 9.85 µM
  TGI: > 100 µM
[29]
  GI50: 74.1 µM
  TGI: > 100 µM
[30]
  GI50: 5.91 µM
  TGI: > 93.7 µM
[31]
  GI50: 8.78 µM
  TGI: > 100 µM
[32]
  GI50: 28.7 µM
  TGI: > 100 µM
[33]
  GI50: 1.89 µM
  TGI: > 100 µM
[34]
  GI50: 1.67 µM
  TGI: > 100 µM
[35]
  GI50: 5.67 µM
  TGI: > 62 µM
[36]
  GI50: 0.505 µM
  TGI: > 100 µM
[37]
  GI50: 0.539 µM
  TGI: > 100 µM
[38]
  GI50: 0.434 µM
  TGI: > 100 µM
[39]
  GI50: 19.5 µM
  TGI: > 100 µM
[40]
  GI50: 0.721 µM
  TGI: > 100 µM
[41]
  GI50: 0.579 µM
  TGI: > 100 µM
[42]
  GI50: > 100 µM
  TGI: > 100 µM
[43]
  GI50: 10.8 µM
  TGI: 47.7 µM
[44]
  GI50: 44.1 µM
  TGI: > 100 µM
[45]
  GI50: 2.77 µM
  TGI: > 55.2 µM
[46]
  GI50: 2.25 µM
  TGI: > 100 µM
[47]
  GI50: 4.96 µM
  TGI: > 100 µM
[48]
  GI50: 0.411 µM
  TGI: > 100 µM
[49]
  GI50: 41.3 µM
  TGI: > 85.5 µM
[50]
  GI50: 1.64 µM
  TGI: > 100 µM
[51]
  GI50: 26.3 µM
  TGI: > 100 µM
[52]
  GI50: 0.768 µM
  TGI: > 56.7 µM
[53]
  GI50: 11.8 µM
  TGI: > 100 µM
[54]
  GI50: 2.58 µM
  TGI: > 100 µM
[55]
  GI50: 1.4 µM
  TGI: > 100 µM
[56]
  GI50: 68 µM
  TGI: > 100 µM
[57]
  TGI: > 100 µM
[58]
  GI50: 31.7 µM
  TGI: > 100 µM
